Assay results: article PMC9106008, “Design, Synthesis and Biological Evaluation of N-phenylindole Derivatives as Pks13 Inhibitors againstMycobacterium tuberculosis” (Molecules, 2022)
Converted amounts (≈) assume the structure as drawn. Read-outs that look alike come from different tables or passages of the source.

Legend:
[1] = tested on: Mtb H37Rv strain; test: microplate alamar blue assay (MABA), MIC; format: cell-based, Mycobacterium tuberculosis; conditions: lowest concentration leading to at least 90% inhibition of bacterial growth signal, average of three measurements
[2] = target: Pks13-TE (Mycobacterium tuberculosis, UniProt I6X8D2); test: biochemical; format: binding; conditions: Pks13-TE 30 µM, 3% DMSO, average of three measurements; for ΔTm at 150 µM: compound 150 µM (1:5); for ΔTm at 300 µM: compound 300 µM (1:10)
[3] = liver microsome stability assay; conditions: for T1/2 / Remaining (T = 60 min): human liver microsomes; for T1/2: 0.1 µM compound, NADPH 1 mM, 37 °C; for Remaining (T = 60 min): 60 min incubation
[4] = human, microsomes, 0.1 µM, pH 7.4; for Remaining (T = 60 min): 1 h
[5] = in vitro; conditions: human, microsomes, pH 7.4
[6] = tested on: Mtb H37Rv strain; conditions: MABA, cited from earlier work
[7] = Mycobacterium tuberculosis, H37RV, read-out: MIC

Chain of Pks13-TE (I6X8D2 1451-1733): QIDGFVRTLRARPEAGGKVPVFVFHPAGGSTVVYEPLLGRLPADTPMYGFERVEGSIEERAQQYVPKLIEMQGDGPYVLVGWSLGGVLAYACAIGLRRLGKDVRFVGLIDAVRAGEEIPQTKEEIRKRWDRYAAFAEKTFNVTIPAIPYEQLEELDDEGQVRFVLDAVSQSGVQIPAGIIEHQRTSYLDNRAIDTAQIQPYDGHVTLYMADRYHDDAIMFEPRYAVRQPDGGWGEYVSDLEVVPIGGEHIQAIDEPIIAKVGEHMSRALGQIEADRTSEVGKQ

Compound `CCOC(=O)c1c(C)n(-c2ccc(C)cc2)c2ccc(O)c(CN3CCCCC3)c12` [Compound 31, Ethyl 5-hydroxy-2-methyl-4-(piperidin-1-ylmethyl)-1-(p-tolyl)-1H-indole-3-carboxylate] has an MIC [1, 7] of 0.5 to 8 µg/mL (≈ 1.23 to 19.7 µM) and an MIC [1] of 1 µg/mL (≈ 2.46 µM).

With `CC(=O)c1c(C)n(-c2ccc(Br)cc2)c2ccc(O)c(CN3CCCCC3)c12` [Compound 58, 1-(1-(4-bromophenyl)-5-hydroxy-2-methyl-4-(piperidin-1-ylmethyl)-1H-indol-3-yl)ethan-1-one] the ΔTm at 150 µM [2] was 9.5 ± 0.04 °C, the ΔTm at 300 µM [2] was 7.6 ± 0.01 °C and the MIC [1, 7] was 0.125 µg/mL (≈ 0.283 µM). For the same compound, the T1/2 [3] was 58.0 min, the “CLint(liver)” value [4] was 21.5 mL/min/kg and the “CLint(mic)” value [4] was 23.9 µL/min/mg. For the same compound, the “Remaining (T = 60 min)” value [4] was 47.3%.

For “Ethyl 1-(4-(tert-butyl)phenyl)-5-hydroxy-2-methyl-4-(piperidin-1-ylmethyl)-1H-indole-3-carboxylate [Compound 57]”, the MIC [1] was 0.5 µg/mL.

With `CCOC(=O)c1c(-c2ccc(OC)cc2)n(-c2ccccc2)c2ccc(O)c(CN3CCCCC3)c12` [Compound 17, Ethyl 5-hydroxy-2-(4-methoxyphenyl)-1-phenyl-4-(piperidin-1-ylmethyl)-1H-indole-3-carboxylate] the MIC [1, 7] was 4 µg/mL (≈ 8.25 µM).

`CCOC(=O)c1c(C)n(-c2ccccc2)c2ccc(O)c(CN3CCCCC3)c12` [Compound 28, Ethyl 5-hydroxy-2-methyl-1-phenyl-4-(piperidin-1-ylmethyl)-1H-indole-3-carboxylate] gave a ΔTm at 150 µM [2] of 8.6 ± 0.01 °C, a ΔTm at 300 µM [2] of 7.8 ± 0.04 °C and an MIC [1, 7] of 8 µg/mL (≈ 20.4 µM).

`CNC(=O)c1c(C)n(-c2ccc(OC)cc2)c2ccc(O)c(CN3CCCCC3)c12` [Compound 30, 5-hydroxy-1-(4-methoxyphenyl)-N,2-dimethyl-4-(piperidin-1-ylmethyl)-1H-indole-3-carboxamide] gave an MIC [1, 7] of 16 µg/mL (≈ 39.3 µM).

Compound `CNC(=O)c1c(-c2ccc(O)cc2)n(-c2ccccc2)c2ccc(O)c(CN3CCCCC3)c12` [Compound 24, 5-hydroxy-2-(4-hydroxyphenyl)-N-methyl-1-phenyl-4-(piperidin-1-ylmethyl)-1H-indole-3-carboxamide] has an MIC [1, 7] of 4 µg/mL (≈ 8.78 µM).

Compound `CCOC(=O)c1c(C)n(-c2ccc(F)cc2)c2ccc(O)c(CN3CCCCC3)c12` [Compound 37, Ethyl 1-(4-fluorophenyl)-5-hydroxy-2-methyl-4-(piperidin-1-ylmethyl)-1H-indole-3-carboxylate] has an MIC [1, 7] of 0.5 to 8 µg/mL (≈ 1.22 to 19.5 µM) and an MIC [1] of 1 µg/mL (≈ 2.44 µM).

For `O=C(O)Cc1ccccc1Nc1c(Cl)cccc1Cl` [Diclofenac], the “Remaining (T = 60 min)” value [3] was 0.1% and the “CLint(liver)” value ([3]; human, scaled from CLint(mic) with 45 mg microsomal protein/g liver, 20 g liver/kg) was 223.1 mL/min/kg.

In the case of `CC(=O)c1c(C)n(-c2ccc(N3CCCCC3)cc2)c2ccc(O)c(CN3CCCCC3)c12` [Compound 48, 1-(5-hydroxy-2-methyl-1-(4-(piperidin-1-yl)phenyl)-4-(piperidin-1-ylmethyl)-1H-indol-3-yl) ethan-1-one], the ΔTm at 150 µM [2] is reported as 14.6 ± 0.04 °C, the ΔTm at 300 µM [2] is reported as 14 ± 0.01 °C and the MIC [1, 7] is reported as 0.125 µg/mL (≈ 0.281 µM). The CLint scaled at 0.1 µM [5] was 60.2 mL/min/kg, the microsomal CLint at 0.1 µM [5] was 66.9 µL/min/mg and the half-life at 0.1 µM ([3]; human, liver microsomes, pH 7.4) was 20.7 min. The “Remaining (T = 60 min)” value [4] was 11.3%.

`CC(=O)c1c(C)n(-c2ccc(N(C)C)cc2)c2ccc(O)c(CN3CCC(C)CC3)c12` [Compound 53, 1-(1-(4-(dimethylamino)phenyl)-5-hydroxy-2-methyl-4-((4-methylpiperidin-1-yl)methyl)-1H-indol-3-yl)ethan-1-one] gave an MIC [1, 7] of 1 µg/mL (≈ 2.38 µM).

For `CCOC(=O)c1c(C)n(-c2ccc(OC)cc2)c2ccc(O)c(CN3CCCCC3)c12` [Compound 34, Ethyl 5-hydroxy-1-(4-methoxyphenyl)-2-methyl-4-(piperidin-1-ylmethyl)-1H-indole-3-carboxylate], the MIC [1, 7] was 0.5 to 8 µg/mL (≈ 1.18 to 18.9 µM) and the MIC [1] was 1 µg/mL (≈ 2.37 µM).

In the case of `CCOC(=O)c1c(-c2ccccc2)[nH]c2ccc(O)c(CN3CCCCC3)c12` [Compound 9], the MIC ([6]; reference compound for comparison) is given as 32 µg/mL (≈ 84.6 µM).

With `CCNC(=O)c1c(-c2ccc(O)cc2)n(-c2ccccc2)c2ccc(O)c(CN3CCCCC3)c12` [Compound 25, N-ethyl-5-hydroxy-2-(4-hydroxyphenyl)-1-phenyl-4-(piperidin-1-ylmethyl)-1H-indole-3-carboxamide] the MIC [1, 7] was 8 µg/mL (≈ 17 µM).

In the case of `O=c1oc2cc(O)ccc2c2oc3ccc(O)c(CN4CCCCC4)c3c12` [Compound 7, reference compound], the ΔTm at 150 µM [2] is listed as 11.4 ± 0.03 °C, the ΔTm at 300 µM [2] is listed as 10.5 ± 0.01 °C and the MIC ([6]; reference compounds for comparison) is listed as 0.0039 µg/mL (≈ 0.0107 µM).

In the case of `CC(=O)c1c(-c2ccc(O)cc2)n(-c2ccccc2)c2ccc(O)c(CN3CCCCC3)c12` [Compound 20, 1-(5-hydroxy-2-(4-hydroxyphenyl)-1-phenyl-4-(piperidin-1-ylmethyl)-1H-indol-3-yl) ethan-1-one], the MIC [1, 7] is reported as 16 µg/mL (≈ 36.3 µM).

Work on `CC(=O)c1c(C)n(-c2ccc(N(C)C)cc2)c2ccc(O)c(CN(C)C)c12` [Compound 51, 1-(4-((dimethylamino)methyl)-1-(4-(dimethylamino)phenyl)-5-hydroxy-2-methyl-1H-indol-3-yl)ethan-1-one] yielded an MIC [1, 7] of 2 µg/mL (≈ 5.47 µM).

In the case of `CC(=O)c1c(C)n(-c2ccc(C(C)(C)C)cc2)c2ccc(O)c(CN3CCCCC3)c12` [Compound 55, 1-(1-(4-(tert-butyl)phenyl)-5-hydroxy-2-methyl-4-(piperidin-1-ylmethyl)-1H-indol-3-yl)ethan-1-one], the MIC [1, 7] is reported as 0.125 µg/mL (≈ 0.299 µM).

Work on `CCOC(=O)c1c(-c2ccc(O)cc2)n(-c2ccccc2)c2ccc(O)c(CN3CCCCC3)c12` [Compound 18, Ethyl 5-hydroxy-2-(4-hydroxyphenyl)-1-phenyl-4-(piperidin-1-ylmethyl)-1H-indole-3-carboxylate] yielded an MIC [1, 7] of 2 to 32 µg/mL (≈ 4.25 to 68 µM) and an MIC [1] of 2 µg/mL (≈ 4.25 µM).

For `CNC(=O)c1c(-c2ccc(OC)cc2)n(-c2ccccc2)c2ccc(O)c(CN3CCCCC3)c12` [Compound 22, 5-hydroxy-2-(4-methoxyphenyl)-N-methyl-1-phenyl-4-(piperidin-1-ylmethyl)-1H-indole-3-carboxamide], the MIC [1, 7] was 16 µg/mL (≈ 34.1 µM).

Work on `CCOC(=O)c1c(-c2ccc(OC)cc2)[nH]c2ccc(O)c(CN3CCCCC3)c12` [Compound 13, Ethyl 5-hydroxy-2-(4-methoxyphenyl)-4-(piperidin-1-ylmethyl)-1H-indole-3-carboxylate] yielded an MIC [1, 7] of 32 µg/mL (≈ 78.3 µM).

In the case of `CCNC(=O)c1c(-c2ccc(OC)cc2)n(-c2ccccc2)c2ccc(O)c(CN3CCCCC3)c12` [Compound 23, N-ethyl-5-hydroxy-2-(4-methoxyphenyl)-1-phenyl-4-(piperidin-1-ylmethyl)-1H-indole-3-carboxamide], the MIC [1, 7] is reported as 16 µg/mL (≈ 33.1 µM).

With `CC(=O)c1c(C)n(-c2ccc(N(C)C)cc2)c2ccc(O)c(CN3CCCC3)c12` [Compound 52, 1-(1-(4-(dimethylamino)phenyl)-5-hydroxy-2-methyl-4-(pyrrolidin-1-ylmethyl)-1H-indol-3-yl)ethan-1-one] the ΔTm at 150 µM [2] was 11.4 ± 0.02 °C, the ΔTm at 300 µM [2] was 10.3 ± 0.04 °C and the MIC [1, 7] was 0.5 µg/mL (≈ 1.28 µM).

`CCOC(=O)c1c(-c2ccc(O)cc2)[nH]c2ccc(O)c(CN3CCCCC3)c12` [Compound 14, Ethyl 5-hydroxy-2-(4-hydroxyphenyl)-4-(piperidin-1-ylmethyl)-1H-indole-3-carboxylate] showed a ΔTm at 150 µM [2] of 5.5 ± 0.04 °C and a ΔTm at 300 µM [2] of 4.9 ± 0.02 °C.

Compound `CC(=O)c1c(C)n(-c2ccc(C(C)(C)C)cc2)c2ccc(O)c(CN3CCCC3)c12` [Compound 56, 1-(1-(4-(tert-butyl)phenyl)-5-hydroxy-2-methyl-4-(pyrrolidin-1-ylmethyl)-1H-indol-3-yl)ethan-1-one] has an MIC [1, 7] of 0.25 µg/mL (≈ 0.618 µM).

Work on `CC(=O)c1c(C)n(-c2ccc(N(C)C)cc2)c2ccc(O)c(CN3CCCCC3)c12` [Compound 50, 1-(1-(4-(dimethylamino)phenyl)-5-hydroxy-2-methyl-4-(piperidin-1-ylmethyl)-1H-indol-3-yl)ethan-1-one] yielded an MIC [1, 7] of 0.5 µg/mL (≈ 1.23 µM).

Work on `CC(=O)c1c(C)n(-c2ccc(C(C)C)cc2)c2ccc(O)c(CN3CCCCC3)c12` [Compound 54, 1-(5-hydroxy-1-(4-isopropylphenyl)-2-methyl-4-(piperidin-1-ylmethyl)-1H-indol-3-yl)ethan-1-one] yielded an MIC [1, 7] of 0.125 µg/mL (≈ 0.309 µM).

In the case of `CC(=O)c1c(C)n(-c2ccc(-c3ccccc3)cc2)c2ccc(O)c(CN3CCCCC3)c12` [Compound 45, 1-(1-([1,1′-biphenyl]-4-yl)-5-hydroxy-2-methyl-4-(piperidin-1-ylmethyl)-1H-indol-3-yl)ethan-1-one], the ΔTm at 150 µM [2] is reported as 14 ± 0.04 °C, the ΔTm at 300 µM [2] is reported as 13.2 ± 0.65 °C and the MIC [1, 7] is reported as 0.0625 µg/mL (≈ 0.143 µM).

`CCOC(=O)c1c(C)n(-c2ccc(N(C)C)cc2)c2ccc(O)c(CN3CCCCC3)c12` [Compound 49, Ethyl 1-(4-(dimethylamino)phenyl)-5-hydroxy-2-methyl-4-(piperidin-1-ylmethyl)-1H-indole-3-carboxylate] gave an MIC [1, 7] of 0.5 to 8 µg/mL (≈ 1.15 to 18.4 µM) and an MIC [1] of 1 µg/mL (≈ 2.3 µM).

In the case of `CNC(=O)c1c(C)n(-c2ccccc2)c2ccc(O)c(CN3CCCCC3)c12` [Compound 29, 5-hydroxy-N,2-dimethyl-1-phenyl-4-(piperidin-1-ylmethyl)-1H-indole-3-carboxamide], the MIC [1, 7] is reported as > 64 µg/mL and the MIC [1] is reported as >64 µg/mL.

In the case of `COc1ccc(-c2c(C(C)=O)c3c(CN4CCCCC4)c(O)ccc3n2-c2ccccc2)cc1` [Compound 19, 1-(5-hydroxy-2-(4-methoxyphenyl)-1-phenyl-4-(piperidin-1-ylmethyl)-1H-indol-3-yl) ethan-1-one], the MIC [1, 7] is reported as 4 µg/mL (≈ 8.8 µM).
